# Reference: the supplement of paper PMC10307832
# What was measured:
# Assay in all cases: relative viability (nuclei count vs DMSO), 5 days (fraction); higher = more cells survive
# [1] = compound: CC1=C(N=C(N=C1N)[C@H](CC(=O)N)NC[C@@H](C(=O)N)N)C(=O)N[C@@H]([C@H](C2=CN=CN2)OC3C(C(C(C(O3)CO)O)O)OC4C(C(C(C(O4)CO)O)OC(=O)N)O)C(=O)N[C@H](C)[C@H]([C@H](C)C(=O)N[C@@H]([C@@H](C)O)C(=O)NCCC5=NC(=CS5)C6=NC(=CS6)C(=O)NCCC[S+](C)C)O [Bleomycin] + Nc1ncn([C@H]2C[C@H](O)[C@@H](CO)O2)c(=O)n1 [Decitabine] (partner 2 µM); conditions: main component drawn
# In short: (§1)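 Relative viability is defined as nuclei in treated wells over nuclei in vehicle wells. Duplicate plates were run and medians reported. Lung cancer cell lines in 1536-well plates were dosed by pin tool one day after seeding, with one drug or with a fixed anchor-drug dose plus five library-drug doses (not always all listed) in √10 steps, and nuclei were counted after 5 days.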
# [2] = compound: CC1=C(N=C(N=C1N)[C@H](CC(=O)N)NC[C@@H](C(=O)N)N)C(=O)N[C@@H]([C@H](C2=CN=CN2)OC3C(C(C(C(O3)CO)O)O)OC4C(C(C(C(O4)CO)O)OC(=O)N)O)C(=O)N[C@H](C)[C@H]([C@H](C)C(=O)N[C@@H]([C@@H](C)O)C(=O)NCCC5=NC(=CS5)C6=NC(=CS6)C(=O)NCCC[S+](C)C)O [Bleomycin] + CC(=O)Nc1cccc(-n2c(=O)n(C3CC3)c(=O)c3c(Nc4ccc(I)cc4F)n(C)c(=O)c(C)c32)c1 [Trametinib] (partner 0.02 µM); conditions: main component drawn
# In short: as §1
# [3] = compound: CC1=C(N=C(N=C1N)[C@H](CC(=O)N)NC[C@@H](C(=O)N)N)C(=O)N[C@@H]([C@H](C2=CN=CN2)OC3C(C(C(C(O3)CO)O)O)OC4C(C(C(C(O4)CO)O)OC(=O)N)O)C(=O)N[C@H](C)[C@H]([C@H](C)C(=O)N[C@@H]([C@@H](C)O)C(=O)NCCC5=NC(=CS5)C6=NC(=CS6)C(=O)NCCC[S+](C)C)O [Bleomycin] + N=C(N)NC(=N)NCCc1ccccc1 [Phenformin] (partner 250 µM); conditions: main component drawn
# In short: as §1
# [4] = compound: COc1cc([C@@H]2c3cc4c(cc3[C@@H](O[C@@H]3O[C@@H]5CO[C@@H](C)O[C@H]5[C@H](O)[C@H]3O)[C@H]3COC(=O)[C@H]23)OCO4)cc(OC)c1O [Etoposide] + CC1(C)CCC(c2ccc(Cl)cc2)=C(CN2CCN(c3ccc(C(=O)NS(=O)(=O)c4ccc(N[C@H](CCN5CCOCC5)CSc5ccccc5)c(S(=O)(=O)C(F)(F)F)c4)cc3)CC2)C1 [Navitoclax] (partner 0.5 µM)
# In short: as §1
Cell Line,relative viability ([1]; first compound 0.03162 µM),relative viability ([1]; first compound 0.1 µM),relative viability ([1]; first compound 0.3162 µM),relative viability ([1]; first compound 1 µM),relative viability ([2]; first compound 0.03162 µM),relative viability ([2]; first compound 0.1 µM),relative viability ([2]; first compound 0.3162 µM),relative viability ([2]; first compound 1 µM),relative viability ([3]; first compound 0.01 µM),relative viability ([3]; first compound 0.03162 µM),relative viability ([3]; first compound 0.1 µM),relative viability ([3]; first compound 0.3162 µM),relative viability ([3]; first compound 1 µM),relative viability ([4]; first compound 0.01 µM),relative viability ([4]; first compound 0.03162 µM),relative viability ([4]; first compound 0.1 µM),relative viability ([4]; first compound 0.3162 µM),relative viability ([4]; first compound 1 µM),relative viability ([1]; first compound 0.01 µM),relative viability ([2]; first compound 0.01 µM)
EMC-BAC-2,0.712,0.538,0.342,0.328,0.6,0.535,0.306,0.29,0.46,0.468,0.391,0.275,0.217,1.08,1.05,0.83,0.297,0.161,–,–
LU99A,0.809,0.64,0.448,0.211,0.485,0.438,0.22,0.173,0.636,0.827,0.673,0.33,0.159,0.828,0.898,0.45,0.311,0.189,0.77,0.485
NCI-H2170,0.42,0.39,0.32,0.271,0.89,0.808,0.559,0.468,0.415,0.426,0.422,0.374,0.338,0.625,0.728,–,0.525,0.399,0.437,0.89
NCI-H2405,0.655,0.61,0.433,0.309,0.529,0.578,0.444,0.313,0.333,0.399,0.383,0.263,0.262,0.801,0.912,0.532,0.513,0.187,0.648,0.537
NCI-H1993,0.507,0.556,0.519,0.436,0.476,0.459,0.391,0.346,0.501,0.512,0.478,0.419,0.44,0.921,1.08,0.856,0.758,0.533,0.602,0.493
NCI-H441,0.238,0.221,0.217,0.224,0.408,0.431,0.298,0.357,0.782,0.906,0.807,0.376,0.292,0.535,0.633,0.571,0.168,0.189,0.233,0.398
PC-14,0.158,0.0921,0.0512,0.0367,0.205,0.133,0.0541,0.0419,0.433,0.341,0.197,0.0557,0.0309,0.984,1.05,1.19,0.906,0.652,0.153,0.243
